Data reported in PubChem BioAssay AID248 (DTP/NCI, 2004).
Values joined by “and” are separate entries in the source; they are usually repeats but may differ in a detail not shown here. Equal entries are not always repeated. Inconclusive results and toxic doses are left out. Rule as the data show it: active = T/C of 150% or more; inactive = T/C below 125%.

Tested on: L1210 leukemia ip in BDF1 mice, survival T/C
Experiment: NCI In Vivo Anticancer Drug Screen. Data for tumor model L1210 Leukemia (intraperitoneal) in B6D2F1 (BDF1) mice
Conditions: endpoint: mean survival time, higher = longer survival
Method in brief: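 Read-out is survival time, reported as the treated-group measurement over the vehicle-control measurement.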

[1] = dose: 100.0 mg/kg/injection, schedule: Q04DX003 (ip), vehicle: Klucel (hydroxypropylcellulose) (HPC)
[2] = dose: 200.0 mg/kg/injection, schedule: Q04DX003 (ip), vehicle: Klucel (hydroxypropylcellulose) (HPC)
[3] = dose: 400.0 mg/kg/injection, schedule: Q04DX003 (ip), vehicle: Klucel (hydroxypropylcellulose) (HPC)
[4] = dose: 100.0 mg/kg/injection, schedule: Q04DX002 (ip), vehicle: Klucel (hydroxypropylcellulose) (HPC)
[5] = dose: 200.0 mg/kg/injection, schedule: Q04DX002 (ip), vehicle: Klucel (hydroxypropylcellulose) (HPC)
[6] = dose: 400.0 mg/kg/injection, schedule: Q04DX002 (ip), vehicle: Klucel (hydroxypropylcellulose) (HPC)
[7] = dose: 100.0 mg/kg/injection, schedule: Q01DX005 (ip), vehicle: saline
[8] = dose: 200.0 mg/kg/injection, schedule: Q01DX005 (ip), vehicle: saline
[9] = dose: 100.0 mg/kg/injection, schedule: Q01DX009 (ip), vehicle: saline with Tween-80
[10] = dose: 200.0 mg/kg/injection, schedule: Q01DX009 (ip), vehicle: saline with Tween-80
[11] = dose: 400.0 mg/kg/injection, schedule: Q01DX009 (ip), vehicle: saline with Tween-80
[12] = dose: 100.0 mg/kg/injection, schedule: Q01DX001 (ip), vehicle: carboxymethylcellulose (CMC)
[13] = dose: 200.0 mg/kg/injection, schedule: Q01DX001 (ip), vehicle: carboxymethylcellulose (CMC)
[14] = dose: 400.0 mg/kg/injection, schedule: Q01DX001 (ip), vehicle: carboxymethylcellulose (CMC)
[15] = dose: 25.0 mg/kg/injection, schedule: Q04DX003 (ip), vehicle: Klucel (hydroxypropylcellulose) (HPC)
[16] = dose: 50.0 mg/kg/injection, schedule: Q04DX003 (ip), vehicle: Klucel (hydroxypropylcellulose) (HPC)

Measured: T/C

COc1cccc(/C=N\NC(=O)C(C)SC(C)C(=O)N/N=C/c2cccc(OC)c2)c1 (stereo not drawn)
inactive: dose: 100.0 mg/kg/injection, schedule: Q01DX009 (ip), vehicle: other 91 % of control | dose: 100.0 mg/kg/injection, schedule: Q04DX003 (ip), vehicle: other 89 % of control | dose: 200.0 mg/kg/injection, schedule: Q01DX009 (ip), vehicle: other 94 % of control | dose: 200.0 mg/kg/injection, schedule: Q04DX003 (ip), vehicle: other 89 % of control | dose: 400.0 mg/kg/injection, schedule: Q01DX009 (ip), vehicle: other 94 % of control | dose: 400.0 mg/kg/injection, schedule: Q04DX003 (ip), vehicle: other 96 % of control

CC(C)NC(=O)c1ccccc1
inactive: dose: 100.0 mg/kg/injection, schedule: Q01DX001 (ip), vehicle: Klucel (hydroxypropylcellulose) (HPC) 96 % of control | [1] 96 % of control | dose: 200.0 mg/kg/injection, schedule: Q01DX001 (ip), vehicle: Klucel (hydroxypropylcellulose) (HPC) 98 % of control | [2] 103 % of control | dose: 400.0 mg/kg/injection, schedule: Q01DX001 (ip), vehicle: Klucel (hydroxypropylcellulose) (HPC) 101 % of control | [3] 101 % of control

CCC1CCCCN1C (stereo not drawn)
inactive: dose: 25.0 mg/kg/injection, schedule: Q01DX009 (ip), vehicle: acetone 96 % of control | dose: 50.0 mg/kg/injection, schedule: Q01DX009 (ip), vehicle: acetone 94 % of control | dose: 100.0 mg/kg/injection, schedule: Q01DX009 (ip), vehicle: acetone 100 % of control

Clc1ccc(CSc2ncc(Br)c(N3CC3)n2)c(Cl)c1
inactive: dose: 88.0 mg/kg/injection, schedule: Q01DX Z (ip), vehicle: methylcellulose (MC) 89 % of control | dose: 133.0 mg/kg/injection, schedule: Q01DX Z (ip), vehicle: methylcellulose (MC) 94 % of control

O=S(=O)(CBr)C1C2C=CC(C2)C1c1ccccc1 (stereo not drawn)
inactive: [4] 106 % of control | [5] 106 % of control | [6] 97 % of control

COC(=O)C1OC(n2cnc3c(N)ncnc32)C(O)C1O (stereo not drawn)
inactive: [7] 101 % of control | [8] 101 % of control

NC(N)=N/N=C/c1ccc[nH]1
inactive: dose: 15.0 mg/kg/injection, schedule: Q01DX Z (ip), vehicle: saline 94 % of control | dose: 30.0 mg/kg/injection, schedule: Q01DX Z (ip), vehicle: saline 99 % of control | dose: 60.0 mg/kg/injection, schedule: Q01DX Z (ip), vehicle: saline 96 % of control | dose: 120.0 mg/kg/injection, schedule: Q01DX Z (ip), vehicle: saline 91 % of control | dose: 120.0 mg/kg/injection, schedule: Q01DX Z (oral), vehicle: saline 105 % of control | dose: 240.0 mg/kg/injection, schedule: Q01DX Z (ip), vehicle: saline 93 % of control | dose: 240.0 mg/kg/injection, schedule: Q01DX Z (oral), vehicle: saline 106 % of control | dose: 480.0 mg/kg/injection, schedule: Q01DX Z (ip), vehicle: saline 98 % of control | dose: 480.0 mg/kg/injection, schedule: Q01DX Z (oral), vehicle: saline 103 % of control | dose: 960.0 mg/kg/injection, schedule: Q01DX Z (oral), vehicle: saline 103 % of control

CC1CC2(C)C(CC1=O)CC(C)C1C3CCC(O)C3(C)CCC12 (stereo not drawn)
inactive: [9] 92 % of control | [10] 96 % of control | [11] 94 % of control

Cn1c(/N=C/c2ccc([N+](=O)[O-])cc2)c(N)c(=O)n(C)c1=O
inactive: dose: 50.0 mg/kg/injection, schedule: Q01DX001 (ip), vehicle: carboxymethylcellulose (CMC) 90 % of control | [12] 93 % of control | [13] 88 % of control | [14] 88 % of control

CC(=O)c1cccc(NC(=O)Nc2ccc(F)c([N+](=O)[O-])c2)c1
inactive: dose: 100.0 mg/kg/injection, schedule: Q01DX009 (ip), vehicle: Klucel (hydroxypropylcellulose) (HPC) 95 % of control | dose: 200.0 mg/kg/injection, schedule: Q01DX009 (ip), vehicle: Klucel (hydroxypropylcellulose) (HPC) 96 % of control

O=C1c2cccc3c(Br)ccc(c23)C(=O)N1C1CCCCCCCCCCC1
inactive: [9] 97 % of control | [10] 90 % of control

Cc1cc(C)n2nc(N)nc2n1
inactive: [12] 101 % of control | [13] 95 % of control | [14] 95 % of control

CCN(Cc1cc(OC)c(OC)c(OC)c1)C1CCCCC1
inactive: dose: 50.0 mg/kg/injection, schedule: Q01DX009 (ip), vehicle: saline 113 % of control | dose: 100.0 mg/kg/injection, schedule: Q01DX009 (ip), vehicle: saline 98 % of control

O=C(OOC(=O)c1ccccc1)c1ccccc1
inactive: dose: 50.0 mg/kg/injection, schedule: Q01DX001 (ip), vehicle: other 96 % of control | dose: 100.0 mg/kg/injection, schedule: Q01DX001 (ip), vehicle: other 94 % of control | dose: 200.0 mg/kg/injection, schedule: Q01DX001 (ip), vehicle: other 102 % of control | dose: 400.0 mg/kg/injection, schedule: Q01DX001 (ip), vehicle: other 102 % of control

C=CCSc1nc2c(N)ncnc2n1C1OC(CO)C(O)C1O (stereo not drawn)
inactive: [7] 103 % of control | [8] 98 % of control

O=[N+]([O-])c1ccc(C[N+]23CCN(CC2)CC3)cc1
inactive: dose: 50.0 mg/kg/injection, schedule: Q01DX009 (ip), vehicle: saline with Tween-80 96 % of control | dose: 50.0 mg/kg/injection, schedule: Q04DX003 (ip), vehicle: saline with Tween-80 106 % of control | [9] 102 % of control | dose: 100.0 mg/kg/injection, schedule: Q04DX003 (ip), vehicle: saline with Tween-80 106 % of control | dose: 200.0 mg/kg/injection, schedule: Q04DX003 (ip), vehicle: saline with Tween-80 101 % of control

O=c1[nH]c2cc(Cl)ccc2c2c(Cl)cccc12
inactive: dose: 75.0 mg/kg/injection, schedule: Q01DX001 (ip), vehicle: carboxymethylcellulose (CMC) 91 % of control | dose: 150.0 mg/kg/injection, schedule: Q01DX001 (ip), vehicle: carboxymethylcellulose (CMC) 91 % of control | dose: 300.0 mg/kg/injection, schedule: Q01DX001 (ip), vehicle: carboxymethylcellulose (CMC) 96 % of control

CC(=O)OC(OC(C)=O)c1ccc([N+](=O)[O-])o1
inactive: dose: 12.5 mg/kg/injection, schedule: Q04DX003 (ip), vehicle: Klucel (hydroxypropylcellulose) (HPC) 101 % of control | [15] 87 % of control | [16] 98 % of control | [1] 96 % of control

O=C(CCl)c1c(O)[n+](Cc2ccccc2)c2ccccn12
inactive: dose: 25.0 mg/kg/injection, schedule: Q04DX003 (ip), vehicle: saline 100 % of control | dose: 50.0 mg/kg/injection, schedule: Q04DX003 (ip), vehicle: saline 96 % of control | dose: 100.0 mg/kg/injection, schedule: Q01DX001 (ip), vehicle: saline 91 % of control | dose: 100.0 mg/kg/injection, schedule: Q04DX003 (ip), vehicle: saline 91 % of control | dose: 150.0 mg/kg/injection, schedule: Q04DX003 (ip), vehicle: saline 97 % of control | dose: 200.0 mg/kg/injection, schedule: Q01DX001 (ip), vehicle: saline 94 % of control | dose: 225.0 mg/kg/injection, schedule: Q04DX003 (ip), vehicle: saline 103 % of control | dose: 335.0 mg/kg/injection, schedule: Q04DX003 (ip), vehicle: saline 106 % of control

CCC1(c2ccccc2)C(=O)N(COCc2ccccc2)C(=O)N(COCc2ccccc2)C1=O
inactive: [9] 98 % of control | dose: 100.0 mg/kg/injection, schedule: Q04DX002 (ip), vehicle: saline with Tween-80 98 % of control | [10] 102 % of control | dose: 200.0 mg/kg/injection, schedule: Q04DX002 (ip), vehicle: saline with Tween-80 95 % of control | [11] 95 % of control | dose: 400.0 mg/kg/injection, schedule: Q04DX002 (ip), vehicle: saline with Tween-80 98 % of control

CNc1n[nH]c(=S)s1
inactive: [4] 101 % of control | [5] 104 % of control | [6] 104 % of control

Cc1ccc(NCS(=O)(=O)O)cc1
inactive: [15] 106 % of control | [16] 103 % of control | [1] 95 % of control and 96 % of control | [2] 100 % of control | [3] 97 % of control
